Data on 21 compounds can be found in patent US10385378B2, “Method for determining toxic substances by plant gel agar coagulation” (priority 2017, dated 2019).

Values after ≈ are worked out from the molar mass of the structure shown. Like-named read-outs stand apart in the source and are kept apart here.

Data set [1] can be described thus: in vitro. To be noted: mouse.
Description: (§1) The MTT reagent was reduced to the purple crystalline formazan by the mitochondrial enzyme of surviving cells, and the crystals were dissolved by DMSO (Dimethyl Sulfoxide).
(§2) Subsequently, the absorbance of OD570 nm was measured. The color depth was proportional with the number of viable cells. […] After 3-5 hours, the cells were plated on 96-well plates and added to the sample (100 μl per well). After incubation for 24 hours, the MTT reagent (MTT 5 mg/ml dissolved in PBS) was reacted for 1 to 2 hours. The culture medium in the 96-well dish was blotted with the MTT reagent and dissolved in 100 μl of DMSO. The absorbance values were read at a wavelength of 570 nm with an ELISA kit.
The nature of data set [2]: in vitro. Conditions: mouse. This is another data set of the same source.
Description: as §1, §2
The nature of data set [3]: Cell viability analysis (MTT) cytotoxicity, B16-F10 cells. To be noted: mouse, B16-F10 cells (ATCC CRL-6475).
Description: as §1, §2
A short description of data set [4]: Cell viability analysis (MTT) cytotoxicity, skin 3T3 cells. Conditions: mouse, skin 3T3 cells (ATCC CCL-92).
Description: as §1, §2
Data set [5] can be described thus: Agar coagulation time with cosmetic materials (3% agar). Conditions: for Agar coagulation time with increase of sample concentration vs control group: FIGS. 2-6, mean±SEM, N=3.
Description: The agar gel solution is dissolved to form a clear solution by changing the temperature in the range from a room temperature to 25° C. The agar gel solution is held in a carrier, such as a bottle, or a test tube, and is tilted at about 30°-60° (for example, 45°) from the vertical orientation. The coagulation time is defined when the agar gel solution ceases to flow.
The subject method utilizes a carrier (such as, for example, a test tube) to observe the effect of added cosmetic material to the coagulation of agar, so as to assess the toxicity of cosmetic materials. In this example, the present invention further evaluates the relevance of the cosmetic material toxicity based on the agar coagulation time with the cytotoxic IC50 testing.
The agar was prepared to be used as the main application material (the plant gel material) for the present invention, and a sample was prepared to test the coagulation time of the agar (for 25 samples under study) as described above. For example, the concentrations of agar solutions are 1%, 2%, 3%, 4%, 5%, and 6% (w/w). In one of the examples, 3% agar solution was heated to 100° C. to be dissolved, and then 100 ml or 200 ml of agar solution was added to a bottle or a test tube to be mixed with various samples (100 ml, or 200 ml). The bottle, or the test tube, were tilted about 45° relative to a plane each 30 seconds, to observe whether there is coagulation, and the cooling from 100° C. to room temperature and corresponding coagulation times were recorded.
Data set [6] concerns B16-F10 cells.
Description: as §1, §2
For data set [7], the system named is skin 3T3 cells.
Description: as §1, §2
Data set [8] concerns B16-F10 cells. Description: Cell viability analysis (MTT) cytotoxicity, B16-F10 cells. Conditions: MTT, incubation for 24 hours.
Description: as §1, §2
Data set [9] concerns skin 3T3 cells. In words: Cell viability analysis (MTT) cytotoxicity, skin 3T3 cells. To be noted: MTT, incubation for 24 hours.
Description: as §1, §2
Setting [10] is: sample concentration 10 % (w/w).
[11] abbreviates: sample concentration 20 % (w/w).
Setting [12] is: sample concentration 30 % (w/w).
Where [13] appears, read: sample concentration 15 % (w/w).

One may read the IC50 as the concentration at which inhibition is half-maximal. Read a low IC50 as higher potency. For the compound `Nc1ccccc1O` [2-Aminophenol], the figures for the IC50 in data set [1] and in data set [2] were 41.2 µg/mL (≈ 0.378 mM) and 39.3 µg/mL (≈ 0.36 mM), respectively.

On to `Nc1cccc(O)c1` [3-Aminophenol], for which the half-inhibitory concentration (IC50) at 24 h in [3] was found to be 126 µg/mL (≈ 1.16 mM); in data set [4], 308 µg/mL (≈ 2.82 mM). Moreover, the Agar coagulation time in [5] (sample concentration 1 % (w/w)) turned out to be 16.489 ± 0.475 min; in data set [5] (sample concentration 5 % (w/w)), 20.455 ± 0.968 min; in [5] (setting [10]), 24.478 ± 1.280 min; in data set [5] (setting [11]), 43.671 ± 0.886 min; in data set [5] (setting [12]) it was 67.444 ± 1.687 min.

Regarding `CCCCCCCCCCCCOS(=O)(=O)O.N` [AmmoniumLauryl Sulfate, Ammonium Lauryl Sulfate], the “Agar coagulation time with increase of sample concentration vs control group” value in data set [5] is “significantly longer”. In addition, the Agar coagulation time turned out to be 16.444 ± 0.477 min in [5] (sample concentration 1 % (w/w)), 18.811 ± 0.987 min in [5] (sample concentration 5 % (w/w)), 28.372 ± 1.287 min in data set [5] (setting [10]) and 39.572 ± 1.077 min in data set [5] (setting [13]).

As to `CCCCOC(=O)c1ccc(O)cc1` [Butyl Paraben], the Agar coagulation time in data set [5] (sample concentration 1 % (w/w)) is on record as 13.186 ± 0.080 min; in data set [5] (sample concentration 5 % (w/w)) it was 13.210 ± 0.079 min; in data set [5] (setting [10]) it was 13.182 ± 0.076 min; in data set [5] (setting [11]) it was 13.141 ± 0.050 min; in [5] (setting [12]) it was 13.238 ± 0.107 min.

On to `CC(O)CCO` (centres unmarked) [Butylene Glycol], for which the “B16-F10 cytotoxicity IC50” value in [6] is over 10000 µg/mL. This compound had a concentration for half-maximal inhibition (IC50) in data set [1] of 7320 µg/mL (≈ 81.3 mM).

For `OCC(O)CO` [Glycerin], the Agar coagulation time is 13.220 ± 0.081 min in [5] (sample concentration 1 % (w/w)); 13.228 ± 0.053 min in data set [5] (sample concentration 5 % (w/w)); 13.333 ± 0.087 min in data set [5] (setting [10]); 13.265 ± 0.067 min in data set [5] (setting [11]); 13.322 ± 0.091 min in data set [5] (setting [12]).

As to `OO` [Hydrogen Peroxide], the IC50 at 24 h in data set [3] stood at 48.9 µg/mL (≈ 1.44 mM); in data set [4], 63.7 µg/mL (≈ 1.87 mM). For the same compound, the “Classification harmful / not harmful to skin by agar coagulation time compared with cell survival analysis” value in data set [5] was “harmful to skin”. Besides, the Agar coagulation time is given as 18.406 ± 0.121 min in data set [5] (sample concentration 1 % (w/w)), 30.544 ± 0.139 min in data set [5] (sample concentration 5 % (w/w)), 91.139 ± 0.257 min in data set [5] (setting [10]) and over 1440 min in [5] (sample concentration 17.5 % (w/w)).

For `CCCCCCCCCCCCCC(=O)OC(C)C` [Isopropyl Myristate], the IC50 at 24 h in [3] and in data set [4] was over 10000 µg/mL each time. Moreover, the Agar coagulation time in [5] (sample concentration 1 % (w/w)) turned out to be 13.153 ± 0.056 min; in data set [5] (sample concentration 5 % (w/w)), 13.186 ± 0.069 min; in data set [5] (setting [10]), 13.185 ± 0.066 min; in [5] (setting [11]), 13.172 ± 0.065 min; in data set [5] (setting [12]), 13.206 ± 0.087 min.

Consider `CC(O)C(=O)O` (centres unmarked) [Lactic acid], for which the IC50 at 24 h worked out at 66 µg/mL (≈ 0.733 mM) in [3] and 30.5 µg/mL (≈ 0.338 mM) in data set [4]. For the same compound, the “Classification harmful / not harmful to skin by agar coagulation time compared with cell survival analysis” value in [5] is recorded as “harmful to skin”. Also, the Agar coagulation time in data set [5] (sample concentration 1 % (w/w)) was 18.299 ± 0.078 min; in [5] (sample concentration 5 % (w/w)) it was 23.378 ± 0.091 min; in [5] (setting [10]), 43.302 ± 0.099 min; in [5] (setting [11]), 253.306 ± 0.124 min; in data set [5] (setting [12]) it was over 1440 min.

On to `Cl.NCCCC[C@H](N)C(=O)O` [Lysine hydrochloride], for which the Agar coagulation time in data set [5] (sample concentration 1 % (w/w)) was found to be 13.241 ± 0.080 min; in data set [5] (sample concentration 5 % (w/w)), 13.198 ± 0.077 min; in data set [5] (setting [10]), 13.238 ± 0.100 min; in data set [5] (setting [11]), 13.254 ± 0.119 min; in data set [5] (setting [12]) it was 13.286 ± 0.147 min.

For `Cn1sc(Cl)cc1=O` [Methylchloroisothiazolinone], the “B16-F10 cytotoxicity IC50” value in data set [6] came to 58 µg/mL. The “Skin cell 3T3 Cytotoxicity IC50” value in data set [7] turned out to be 36.5 µg/mL.

`NCCO` [Monoethanolamine] came in with a 50% inhibitory concentration (IC50) at 24 h in data set [3] of 3650 µg/mL (≈ 59.7 mM). The Agar coagulation time in data set [5] (sample concentration 1 % (w/w)) is 13.193 ± 0.067 min; in [5] (sample concentration 5 % (w/w)) it was 13.251 ± 0.077 min; in data set [5] (setting [10]), 13.296 ± 0.066 min; in data set [5] (setting [11]), 13.345 ± 0.088 min; in data set [5] (setting [12]), 13.354 ± 0.083 min.

For the compound `Oc1cccc(O)c1` [Resorcinol], the values for the half-maximal inhibitory concentration (IC50) at 24 h in [3] and in data set [4] were 4930 µg/mL (≈ 44.8 mM) and 9860 µg/mL (≈ 89.5 mM), respectively. In addition, the Agar coagulation time in data set [5] (sample concentration 1 % (w/w)) was 32.821 ± 0.082 min; in data set [5] (sample concentration 5 % (w/w)) it was 238.511 ± 0.101 min; in data set [5] (setting [10]) it was over 4320 min; in data set [5] (setting [11]), over 4320 min; in data set [5] (setting [12]), over 4320 min.

In the case of `O=C(O)c1ccccc1O` [Salicylic Acid], the IC50 at 24 h in data set [3] is 414 µg/mL (≈ 3 mM); in [4], 1390 µg/mL (≈ 10.1 mM). Also, the Agar coagulation time in [5] (sample concentration 1 % (w/w)) stood at 13.210 ± 0.087 min; in data set [5] (sample concentration 5 % (w/w)), 13.221 ± 0.091 min; in [5] (setting [10]), 13.144 ± 0.068 min; in data set [5] (setting [11]), 13.219 ± 0.093 min; in data set [5] (setting [12]), 13.184 ± 0.063 min.

On to `CC(C)CCCC(C)CCCC(C)CCCCC(C)CCCC(C)CCCC(C)C` (centres unmarked) [Squalane], for which the 50% inhibitory concentration (IC50) at 24 h was 5420 µg/mL (≈ 12.8 mM) in data set [3] and over 10000 µg/mL in data set [4]. The Agar coagulation time in data set [5] (sample concentration 1 % (w/w)) stood at 13.260 ± 0.068 min; in data set [5] (sample concentration 5 % (w/w)) it was 13.199 ± 0.073 min; in data set [5] (setting [10]), 13.276 ± 0.081 min; in [5] (setting [11]), 13.254 ± 0.077 min; in [5] (setting [12]) it was 13.305 ± 0.097 min.

Consider `CC(=O)Oc1c(C)c(C)c2c(c1C)CCC(C)(CCC[C@H](C)CCC[C@H](C)CCCC(C)C)O2` (some centres unmarked) [Tocopherol Acetate], for which the IC50 at 24 h in data set [3] and in data set [4] was over 10000 µg/mL in each case. Moreover, the Agar coagulation time is listed as 13.200 ± 0.080 min in data set [5] (sample concentration 1 % (w/w)); 13.209 ± 0.079 min in [5] (sample concentration 5 % (w/w)); 13.185 ± 0.072 min in data set [5] (setting [10]); 13.167 ± 0.066 min in [5] (setting [11]); 13.192 ± 0.071 min in [5] (setting [12]).

Turning to `O.O.O=C([O-])CC(O)(CC(=O)[O-])C(=O)[O-].[Na+].[Na+].[Na+]` [Trisodium Citrate Dihydrate], the “B16-F10 cytotoxicity IC50” value in data set [6] came to 3335.4 µg/mL. Moreover, in data set [7], the “Skin cell 3T3 Cytotoxicity IC50” value is over 10000 µg/mL.

In the case of `COC(=O)c1ccc(O)cc1` [methyl p-hydroxybenzate], the IC50 at 24 h is 4850 µg/mL (≈ 31.9 mM) in [3] and over 10000 µg/mL in [4]. Further, the Agar coagulation time in data set [5] (sample concentration 1 % (w/w)) was 13.230 ± 0.084 min; in data set [5] (sample concentration 5 % (w/w)), 13.197 ± 0.066 min; in [5] (setting [10]), 13.242 ± 0.087 min; in [5] (setting [11]) it was 13.208 ± 0.100 min; in [5] (setting [12]) it was 13.203 ± 0.090 min.

On to `Nc1ccc(N)cc1` [p-Phenylenediamine], for which the “Agar coagulation time with increase of sample concentration vs control group” value in data set [5] is on record as “significantly longer”. Also, the Agar coagulation time in data set [5] (sample concentration 1 % (w/w)) was 16.245 ± 0.468 min; in [5] (sample concentration 5 % (w/w)), 22.189 ± 0.782 min; in data set [5] (setting [10]), 27.500 ± 1.073 min; in data set [5] (setting [11]), 39.489 ± 1.572 min; in data set [5] (setting [12]), 52.689 ± 1.982 min.

Take `O.O.O.O.O.O.O.O.O.[Na+].[Na+].[S-2]` [sodium Sulfide-9-Hydrate]: the “B16-F10 cytotoxicity IC50” value in data set [6] is 4187.1 µg/mL. The “Skin cell 3T3 Cytotoxicity IC50” value in data set [7] was over 10000 µg/mL.

Consider Disodium Lauroamphodiacetate, for which the “B16-F10 cytotoxicity IC50” value in data set [8] was determined as 72.8 µg/mL. In addition, the “Skin cell 3T3 Cytotoxicity IC50” value in data set [9] stood at 55.6 µg/mL. In [5], the “Classification harmful / not harmful to skin by agar coagulation time compared with cell survival analysis” value is recorded as “harmful to skin”. Further, the Agar coagulation time in data set [5] (sample concentration 1 % (w/w)) is listed as 14.356 ± 0.097 min; in [5] (sample concentration 5 % (w/w)), 20.422 ± 0.106 min; in [5] (setting [10]), 43.333 ± 0.112 min; in data set [5] (setting [13]) it was 87.784 ± 0.176 min.
